Results as given in patent US6358886B1, “6-Substituted 2,4-diamino-1,3,5-triazine derivatives having at least two asymmetrically substituted carbon atoms, the production thereof, and their use as herbicides” (Bayer Aktienegesellschaft, priority 1998, dated 2002).

Legend:
Format in all cases: in vivo
[1] = test system: Maize; assay: Pre-emergence test/greenhouse; conditions: after three weeks, crop plant
Description: (§1) Solvent: 5 parts by weight of acetone
(§2) Emulsifier: 1 part by weight of alkylaryl polyglycol ether
(§3) To produce a suitable preparation of active compound, 1 part by weight of active compound is mixed with the stated amount of solvent, the stated amount of emulsifier is added and the concentrate is diluted with water to the desired concentration.
(§4) Seeds of the test plants are sown in normal soil. After about 24 hours, the soil is sprayed with the preparation of active compound such that the particular amounts of active compound desired are applied per unit area. The concentration of the spray liquor is chosen so that the particular amounts of active compound desired are applied in 1000 l of water/ha.
(§5) After three weeks, the degree of damage to the plants is rated in % damage in comparison to the development of the untreated control.
(§6) 0%=no effect (like untreated control)

[2] = test system: Abutilon; assay: Pre-emergence test/greenhouse; conditions: after three weeks
Description: as §1, §2, §3, §4, §5, §6

[3] = test system: Alopecurus; assay: Pre-emergence test/greenhouse; conditions: after three weeks
Description: as §1, §2, §3, §4, §5, §6

[4] = test system: Amaranthus; assay: Pre-emergence test/greenhouse; conditions: after three weeks
Description: as §1, §2, §3, §4, §5, §6

[5] = test system: Setaria; assay: Pre-emergence test/greenhouse; conditions: after three weeks
Description: as §1, §2, §3, §4, §5, §6

[6] = test system: Sinapis; assay: Pre-emergence test/greenhouse; conditions: after three weeks
Description: as §1, §2, §3, §4, §5, §6

[7] = test system: Galium; assay: Pre-emergence test/greenhouse; conditions: after three weeks
Description: as §1, §2, §3, §4, §5, §6

[8] = test system: weeds; assay: Post-emergence test; conditions: result in words
Description: as §1, §2, §3
as §4, with “Test plants which have a height” for “Seeds”, “5-15 cm” for “the test plants”, “are” for “are sown in normal soil. After about 24 hours, the soil is”
as §5, §6

[9] = test system: weeds; assay: Pre-emergence test; conditions: result in words
Description: as §1, §2, §3, §4, §5, §6

[10] = test system: Xanthium; assay: Post-emergence test/greenhouse; conditions: after three weeks
Description: as §1, §2, §3
as §4, with “Test plants which have a height” for “Seeds”, “5-15 cm” for “the test plants”, “are” for “are sown in normal soil. After about 24 hours, the soil is”
as §5, §6

[11] = test system: Abutilon; assay: Post-emergence test/greenhouse; conditions: after three weeks
Description: as §1, §2, §3
as §4, with “Test plants which have a height” for “Seeds”, “5-15 cm” for “the test plants”, “are” for “are sown in normal soil. After about 24 hours, the soil is”
as §5, §6

[12] = test system: Amaranthus; assay: Post-emergence test/greenhouse; conditions: after three weeks
Description: as §1, §2, §3
as §4, with “Test plants which have a height” for “Seeds”, “5-15 cm” for “the test plants”, “are” for “are sown in normal soil. After about 24 hours, the soil is”
as §5, §6

[13] = test system: Setaria; assay: Post-emergence test/greenhouse
Description: as §1, §2, §3
as §4, with “Test plants which have a height” for “Seeds”, “5-15 cm” for “the test plants”, “are” for “are sown in normal soil. After about 24 hours, the soil is”
as §5, §6

[14] = test system: crop plants, such as, for example, sunflowers; assay: Pre-emergence test, crop tolerance; conditions: result in words
Description: as §1, §2, §3, §4, §5, §6

[15] = test system: Sinapis; assay: Post-emergence test/greenhouse; conditions: Table A-3, 1000 g of ai./ha, after three weeks
Description: as §1, §2, §3
as §4, with “Test plants which have a height” for “Seeds”, “5-15 cm” for “the test plants”, “are” for “are sown in normal soil. After about 24 hours, the soil is”
as §5, §6

[16] = Table A-3, 1000 g of ai./ha, after three weeks

CCC(COc1cc(C)cc(C)c1)Nc1nc(N)nc([C@@H](C)O)n1 (mixture of isomers) [Example 2]
degree of damage, Maize ([1]; Table B-2, 1000 g of ai./ha): 20%
degree of damage, Abutilon ([2]; Table B-2, 1000 g of ai./ha): 100%
degree of damage, Alopecurus ([3]; Table B-2, 1000 g of ai./ha): 100%
degree of damage, Amaranthus ([4]; Table B-2, 1000 g of ai./ha): 80%
degree of damage, Setaria ([5]; Table B-2, 1000 g of ai./ha): 100%

CCC(COc1cc(C)cc(C)c1)Nc1nc(N)nc([C@H](C)O)n1 (mixture of isomers) [Example 3]
degree of damage, Abutilon ([2]; Table B-3, 2000 g of ai./ha): 100%
degree of damage, Sinapis ([6]; Table B-3, 2000 g of ai./ha): 100%
degree of damage, Amaranthus ([4]; Table B-3, 2000 g of ai./ha): 100%
degree of damage, Setaria ([5]; Table B-3, 2000 g of ai./ha): 100%
degree of damage, Galium ([7]; Table B-3, 2000 g of ai./ha): 100%

CCC(COc1cc(C)cc(C)c1)Nc1nc(N)nc([C@H](C)Cl)n1 (mixture of isomers) [Example 4]
degree of damage, Abutilon ([2]; Table B-3, 2000 g of ai./ha): 100%
degree of damage, Alopecurus ([3]; Table B-3, 2000 g of ai./ha): 100%
degree of damage, Sinapis ([6]; Table B-3, 2000 g of ai./ha): 100%
degree of damage, Amaranthus ([4]; Table B-3, 2000 g of ai./ha): 95%
degree of damage, Setaria ([5]; Table B-3, 2000 g of ai./ha): 100%
degree of damage, Galium ([7]; Table B-3, 2000 g of ai./ha): 100%

CCC(COc1cc(C)cc(C)c1)Nc1nc(N)nc([C@@H](C)Cl)n1 (mixture of isomers) [Example 5]
degree of damage, Maize ([1]; Table B-1, 1000 g of ai./ha): 20%
degree of damage, Abutilon ([2]; Table B-1, 1000 g of ai./ha): 100%
degree of damage, Setaria ([5]; Table B-1, 1000 g of ai./ha): 100%
degree of damage, Galium ([7]; Table B-1, 1000 g of ai./ha): 100%

CCC(COc1ccccc1)Nc1nc(N)nc([C@H](C)Cl)n1 (mixture of isomers) [Example 7]
degree of damage, Abutilon ([2]; Table B-3, 1000 g of ai./ha): 100%
degree of damage, Alopecurus ([3]; Table B-3, 1000 g of ai./ha): 95%
degree of damage, Sinapis ([6]; Table B-3, 1000 g of ai./ha): 100%
degree of damage, Amaranthus ([4]; Table B-3, 1000 g of ai./ha): 100%
degree of damage, Setaria ([5]; Table B-3, 1000 g of ai./ha): 95%
degree of damage, Galium ([7]; Table B-3, 1000 g of ai./ha): 100%

CCC(=O)Nc1nc(NC(CC)COc2ccccc2)nc([C@H](C)Cl)n1 (mixture of isomers) [Example 9]
degree of damage, Maize ([1]; Table B-2, 1000 g of ai./ha): 20%
degree of damage, Abutilon ([2]; Table B-2, 1000 g of ai./ha): 95%
degree of damage, Alopecurus ([3]; Table B-2, 1000 g of ai./ha): 95%
degree of damage, Sinapis ([6]; Table B-2, 1000 g of ai./ha): 100%
degree of damage, Amaranthus ([4]; Table B-2, 1000 g of ai./ha): 100%

CCC(CCc1ccsc1)Nc1nc(N)nc([C@H](C)Cl)n1 (mixture of isomers) [Example 15]
degree of damage, Abutilon ([2]; Table B-3, 1000 g of ai./ha): 100%
degree of damage, Alopecurus ([3]; Table B-3, 1000 g of ai./ha): 100%
degree of damage, Sinapis ([6]; Table B-3, 1000 g of ai./ha): 100%
degree of damage, Amaranthus ([4]; Table B-3, 1000 g of ai./ha): 100%
degree of damage, Setaria ([5]; Table B-3, 1000 g of ai./ha): 100%
degree of damage, Galium ([7]; Table B-3, 1000 g of ai./ha): 100%

C[C@H](Nc1nc(N)nc([C@@H](C)O)n1)c1ccccc1 [Example 1, 2-amino-4-(R)-(1-hydroxyethyl)-6-(S)-(1-phenyl-ethylamino)-1,3,5-triazine]
activity against weeds [8]: strong activity
activity against weeds [9]: strong activity
degree of damage, Xanthium ([10]; Table A-1, 1000 g of ai./ha): 95%
degree of damage, Abutilon ([11]; Table A-1, 1000 g of ai./ha): 80%
degree of damage, Amaranthus ([12]; Table A-1, 1000 g of ai./ha): 100%
degree of damage, Setaria ([13]; Table A-1, 1000 g of ai./ha, rated after three weeks, 0%=no effect, 100%=total destruction): 90%
tolerance by crop plants [14]: tolerated well

C[C@H](Nc1nc(N)nc([C@@H](C)Cl)n1)c1ccccc1 [Example 18]
activity against weeds [8]: strong activity
degree of damage, Xanthium ([10]; Table A-3, 1000 g of ai./ha): 100%
degree of damage, Abutilon ([11]; Table A-3, 1000 g of ai./ha): 100%
degree of damage, Sinapis [15]: 100%
degree of damage, Amaranthus ([12]; Table A-3, 1000 g of ai./ha): 100%
degree of damage, Setaria [13, 16]: 100%

CC[C@H](Nc1nc(N)nc([C@H](C)Cl)n1)c1ccccc1 [Example 22]
activity against weeds [8]: strong activity
degree of damage, Xanthium ([10]; Table A-3, 1000 g of ai./ha): 100%
degree of damage, Abutilon ([11]; Table A-3, 1000 g of ai./ha): 95%
degree of damage, Sinapis [15]: 100%
degree of damage, Amaranthus ([12]; Table A-3, 1000 g of ai./ha): 100%
degree of damage, Setaria [13, 16]: 95%

CC[C@H](Nc1nc(N)nc([C@@H](C)Cl)n1)c1ccccc1 [Example 23]
activity against weeds [8]: strong activity
degree of damage, Xanthium ([10]; Table A-3, 1000 g of ai./ha): 100%
degree of damage, Abutilon ([11]; Table A-3, 1000 g of ai./ha): 95%
degree of damage, Sinapis [15]: 100%
degree of damage, Amaranthus ([12]; Table A-3, 1000 g of ai./ha): 100%
degree of damage, Setaria [13, 16]: 80%
